IC50 and Activity data for 31 molecules are collected here from ChEMBL document CHEMBL1140590, “3-(2'-Bromopropionylamino)-benzamides as novel S-phase arrest agents” (Bioorg Med Chem Lett, 2007).

The test system of one assay is MOLT-3. Put plainly: Antiproliferative activity against human Molt3 cells. In kind it is functional, cell-based.
The subject of another assay is MCF7. Put plainly: Antiproliferative activity against human MCF7 cells. In kind it is functional, cell-based.
For another assay, the system named is Bel-7402. Put plainly: Antiproliferative activity against human Bel7402 cells. In kind it is functional, cell-based.
A further assay concerns PC-3. Nature of the assay: Antiproliferative activity against human PC3 cells. In kind it is functional, cell-based.
Assay [1] in a line: Antiproliferative activity against human DND1 cells. In kind it is functional, cell-based.
The next assay concerns DU-145. Nature of the assay: Antiproliferative activity against human DU145 cells. The assay is classed as functional, cell-based.
The test system of assay [2] is CEM (Homo sapiens). Put plainly: Cell cycle arrest in human CEM cells by accumulation at S phase after 24 hrs at 6.14 uM.
Assay [3] deals with CEM (Homo sapiens). Put plainly: Cell cycle arrest in human CEM cells by accumulation at S phase after 6 to 12 hrs at 6.14 uM.
For assay [4], the system named is CEM (Homo sapiens). Nature of the assay: Cell cycle arrest in human CEM cells by accumulation at S phase after 6 hrs at 6.14 uM.

Some results are limits rather than exact numbers.

What is called IC50 is the concentration that gives 50% inhibition. In the assay on MOLT-3, `COc1cc(NC(=O)c2ccc(F)c(NC(=O)C(C)Br)c2)cc(OC)c1OC` (stereo unspecified) returned a concentration for half-maximal inhibition (IC50) of 2.2 µM.
On to `COc1ccc(NC(=O)c2cc(NC(=O)C(C)Br)ccc2F)cc1` (stereo unspecified), for which the IC50 is 1.39 µM with MCF7; 3.37 µM in the assay with Bel-7402; 0.25 µM with MOLT-3; 2.43 µM in the assay on PC-3; 2.56 µM in assay [1]; 6.45 µM in the assay on DU-145.
In the case of `COc1cc(NC(=O)c2ccccc2NC(=O)C(C)Br)cc(OC)c1OC` (stereo unspecified), in the assay on MOLT-3, the IC50 was 5.72 µM.
The same measure, in the same setting: as for `COc1ccc(NC(=O)c2cc(NC(=O)C(C)Br)ccc2F)cc1OC` (stereo unspecified), the figure is 0.47 µM.
In the case of `COc1ccc(/C=C\c2cc(OC)c(OC)c(OC)c2)cc1O` [COMBRETASTATIN A4], the concentration for half-maximal inhibition (IC50) in the assay with MOLT-3 was 0.09 µM; in assay [1] it was 0.003 µM; in the assay with DU-145 it was 0.009 µM.
The molecule `COc1cc(C(=O)Nc2cccc(NC(=O)C(C)Br)c2)cc(OC)c1OC` (stereo unspecified) had a half-inhibitory concentration (IC50) in the assay on MOLT-3 of 5.66 µM.
For `COc1cc(NC(=O)c2cccc(NC(=O)C(C)Br)c2)cc(OC)c1OC` (stereo unspecified), the IC50 with MCF7 came out at 1.47 µM; in the assay on Bel-7402 it was 2.64 µM; with MOLT-3 it was 0.67 µM; with PC-3, 2.46 µM; in assay [1], 2.26 µM; with DU-145 it was 1.93 µM.
As for `CC(Br)C(=O)Nc1cccc(C(=O)N2CCN(C)CC2)c1` (stereo unspecified), in the assay with MOLT-3, the IC50 is greater than 10 µM.
Molecule `COc1cc(NC(=O)c2cc(NC(=O)C(C)Br)ccc2O)cc(OC)c1OC` (stereo unspecified) returned an IC50 in the assay with MOLT-3 of 1.08 µM.
For `COc1ccc2nc(NC(=O)c3cccc(NC(=O)C(C)Br)c3)sc2c1` (stereo unspecified), 1.66 µM corresponded to half-maximal inhibition in the assay with MOLT-3 (IC50).
As to `COc1ccc(C(=O)Nc2cc(OC)c(OC)c(OC)c2)cc1NC(=O)C(C)Br` (stereo unspecified), inhibition in the assay on MOLT-3 was half-maximal at 4.24 µM (IC50).
Take `CCCNC(=O)c1cccc(NC(=O)C(C)Br)c1` (stereo unspecified): the midpoint of inhibition with MOLT-3, the IC50, lay at 8.94 µM.
The molecule `COc1cc(NC(=O)c2cccc(NC(=O)C(C)Br)c2)cc(OC)c1` (stereo unspecified) came in with an IC50 with MOLT-3 of 0.61 µM.
Molecule `COc1cc(NC(=O)c2cc(NC(=O)C(C)Br)ccc2F)ccc1O` (stereo unspecified) had an IC50 with MOLT-3 of 0.85 µM.
On the same count and under the same terms, next, `CC(Br)C(=O)Nc1cccc(C(=O)Nc2ccc(F)cc2)c1` (stereo unspecified): 2 µM.
In turn, `CC(Br)C(=O)Nc1cccc(C(=O)NCCN(C)C)c1` (stereo unspecified) displayed a concentration for half-maximal inhibition (IC50) in the assay on MOLT-3 greater than 10 µM.
Regarding `COc1cc(NC(=O)c2cc(NC(=O)C(C)Br)ccc2F)cc(OC)c1OC` (stereo unspecified), the half-maximal inhibitory concentration (IC50) with MCF7 worked out at 2.11 µM; with Bel-7402, 2.05 µM; in the assay on MOLT-3 it was 0.42 µM; in the assay with PC-3, 2.18 µM; in assay [1], 4.16 µM; with DU-145, 2.03 µM.
`COc1ccc(NC(=O)c2cccc(NC(=O)C(C)Br)c2)cc1` (stereo unspecified) yielded an IC50 with MOLT-3 of 0.8 µM.
On the same count and under the same terms, next, `COc1cc(NC(=O)NC(=O)c2cccc(NC(=O)C(C)Br)c2)cc(OC)c1OC` (stereo unspecified): 4.22 µM; `COc1cc(NC(=O)c2ccc(NC(=O)C(C)Br)cc2)cc(OC)c1OC` (stereo unspecified): 1.79 µM.
In assay [1], `COc1cc([C@@H]2c3cc4c(cc3[C@H](O)[C@H]3COC(=O)[C@H]23)OCO4)cc(OC)c1OC` [PODOFILOX] registered a concentration for half-maximal inhibition (IC50) of 0.012 µM.
Consider `CC(Br)C(=O)Nc1cccc(C(=O)Nc2ccc3c(c2)OCO3)c1` (stereo unspecified), for which the midpoint of inhibition in the assay with MOLT-3, the IC50, lay at 0.62 µM.
With `CCOc1ccc(NC(=O)c2cc(NC(=O)C(C)Br)ccc2F)cc1` (stereo unspecified), the IC50 in the assay on MOLT-3 is greater than 10 µM.
The same measure, in the same setting: as for `CC(Br)C(=O)Nc1cccc(C(=O)NC(N)=O)c1` (stereo unspecified), the figure is 1.6 µM; as for `CCCCNC(=O)c1cccc(NC(=O)C(C)Br)c1` (stereo unspecified), greater than 10 µM.
Molecule `COc1cc(NS(=O)(=O)c2cccc(NC(=O)C(C)Br)c2)cc(OC)c1OC` (stereo unspecified) had an IC50 in the assay on MOLT-3 of 1.27 µM.
Take `COc1cc(NC(=O)c2ccc(Cl)c(NC(=O)C(C)Br)c2)cc(OC)c1OC` (stereo unspecified): in the assay on MOLT-3, the IC50 was found to be 2.25 µM.
Turning to `COc1ccc(NC(=O)c2cccc(NC(=O)C(C)Br)c2)cc1OC` (stereo unspecified), the IC50 was 1.23 µM in the assay with MCF7; 2.33 µM in the assay on Bel-7402; 0.12 µM in the assay on MOLT-3; 2.36 µM in the assay on PC-3; 1.4 µM in assay [1]; 1.87 µM in the assay on DU-145. For the same molecule, the results for the Activity in the assay with CEM (Homo sapiens) [2], with CEM (Homo sapiens) [3] and in the assay with CEM (Homo sapiens) [4] were 61.9%, 62.7% and 52.9%, respectively.
As to `COc1cc(NC(=O)c2cc(NC(=O)C(C)Br)ccc2F)ccn1` (stereo unspecified), the concentration for half-maximal inhibition (IC50) is 2.2 µM in the assay on MCF7; 2.7 µM in the assay with Bel-7402; 0.5 µM with MOLT-3; 2.42 µM in the assay on PC-3; 2.57 µM in assay [1]; 2.35 µM in the assay with DU-145.
In the case of `CC(Br)C(=O)Nc1cccc(C(=O)Nc2ccc3[nH]c4ccccc4c3c2)c1` (stereo unspecified), the half-maximal inhibitory concentration (IC50) in the assay on MOLT-3 was found to be 1.51 µM.
Consider `COc1cc(NC(=O)c2cccc(NC(=O)C(C)Br)c2)ccc1O` (stereo unspecified), for which the IC50 worked out at 0.86 µM in the assay with MCF7; 5.26 µM in the assay with Bel-7402; 0.51 µM in the assay on MOLT-3; 3.13 µM with PC-3; 1.22 µM in [1]; 6.48 µM in the assay on DU-145.
